Reference: patent publication US8871753B2, “Macrocyclic compounds and their use as kinase inhibitors” (Incyte Corporation, priority 2008, dated 2014)
Structures can show the parent of a compound that is named as a salt. Where two headings read alike, the source gives them in different places.

Assays:
Format in all cases: biochemical
[1] = molecular target: T1, human JAK1 (a.a. 837-1142) (Homo sapiens, UniProt P23458); assay: In vitro JAK kinase assay (HTRF, phosphorylation of a biotinylated peptide), JAK1; conditions: read-out: JAK1 IC50
T1 construct: human JAK1 (a.a. 837-1142); His tag (N); made in house; host or cells: insect cells (baculovirus)
How it was run: (§1)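 Phosphorylation of a biotinylated peptide by the JAK kinase domain, detected by HTRF with Eu-Py20 and SA-APC. ATP was 90 μM for JAK1, 30 μM for JAK2 and 3 μM for JAK3. Reactions ran 1 h at room temperature and were stopped with EDTA, followed by 40 min antibody binding.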

[2] = molecular target: T2, human JAK2 (a.a. 828-1132) (Homo sapiens, UniProt O60674); assay: In vitro JAK kinase assay (HTRF, phosphorylation of a biotinylated peptide), JAK2
T2 construct: JAK2 (a.a. 828-1132); His tag (N); made in house; host or cells: insect cells (baculovirus)
How it was run: as §1

[3] = molecular target: T3, human JAK3 (a.a. 781-1124) (Homo sapiens, UniProt P52333); assay: In vitro JAK kinase assay (HTRF, phosphorylation of a biotinylated peptide), JAK3
T3 construct: JAK3 (a.a. 781-1124); His tag (N); made in house; host or cells: insect cells (baculovirus)
How it was run: as §1

TYK2 = TYK2 (Homo sapiens, UniProt P29597); assay: TYK2 kinase inhibition (Table A1)
[4] = molecular target: T4, Recombinant Human Anaplastic Lymphoma Kinase (Homo sapiens, UniProt Q9UM73); assay: ALK HTRF kinase assay; conditions: for IC50: Table B1, cells without percent sign
T4 construct: purchased Invitrogen, Carlsbad, Calif
How it was run: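 Recombinant human ALK with biotinylated peptide substrate; phosphorylation detected by HTRF using Eu-labelled anti-phosphotyrosine antibody and streptavidin-allophycocyanin. IC50 from a sigmoidal fit with Hill slope.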

[5] = compound at a concentration of 500 nM or 1 mM (not specified), cells shown as percentage
[6] = method AA1 (90 μM ATP) or AA2 (1000 μM ATP), not stated per value
[7] = method AA1 (30 μM ATP) or AA2 (1000 μM ATP), not stated per value
[8] = method AA1 (3 μM ATP) or AA2 (1000 μM ATP), not stated per value
[9] = compound at 500 nM or 1 mM, 90 μM ATP
[10] = percentage inhibition of the example compound at a concentration of 500 nM or 1 mM (not specified which)

T4 sequence (Q9UM73 19-1620): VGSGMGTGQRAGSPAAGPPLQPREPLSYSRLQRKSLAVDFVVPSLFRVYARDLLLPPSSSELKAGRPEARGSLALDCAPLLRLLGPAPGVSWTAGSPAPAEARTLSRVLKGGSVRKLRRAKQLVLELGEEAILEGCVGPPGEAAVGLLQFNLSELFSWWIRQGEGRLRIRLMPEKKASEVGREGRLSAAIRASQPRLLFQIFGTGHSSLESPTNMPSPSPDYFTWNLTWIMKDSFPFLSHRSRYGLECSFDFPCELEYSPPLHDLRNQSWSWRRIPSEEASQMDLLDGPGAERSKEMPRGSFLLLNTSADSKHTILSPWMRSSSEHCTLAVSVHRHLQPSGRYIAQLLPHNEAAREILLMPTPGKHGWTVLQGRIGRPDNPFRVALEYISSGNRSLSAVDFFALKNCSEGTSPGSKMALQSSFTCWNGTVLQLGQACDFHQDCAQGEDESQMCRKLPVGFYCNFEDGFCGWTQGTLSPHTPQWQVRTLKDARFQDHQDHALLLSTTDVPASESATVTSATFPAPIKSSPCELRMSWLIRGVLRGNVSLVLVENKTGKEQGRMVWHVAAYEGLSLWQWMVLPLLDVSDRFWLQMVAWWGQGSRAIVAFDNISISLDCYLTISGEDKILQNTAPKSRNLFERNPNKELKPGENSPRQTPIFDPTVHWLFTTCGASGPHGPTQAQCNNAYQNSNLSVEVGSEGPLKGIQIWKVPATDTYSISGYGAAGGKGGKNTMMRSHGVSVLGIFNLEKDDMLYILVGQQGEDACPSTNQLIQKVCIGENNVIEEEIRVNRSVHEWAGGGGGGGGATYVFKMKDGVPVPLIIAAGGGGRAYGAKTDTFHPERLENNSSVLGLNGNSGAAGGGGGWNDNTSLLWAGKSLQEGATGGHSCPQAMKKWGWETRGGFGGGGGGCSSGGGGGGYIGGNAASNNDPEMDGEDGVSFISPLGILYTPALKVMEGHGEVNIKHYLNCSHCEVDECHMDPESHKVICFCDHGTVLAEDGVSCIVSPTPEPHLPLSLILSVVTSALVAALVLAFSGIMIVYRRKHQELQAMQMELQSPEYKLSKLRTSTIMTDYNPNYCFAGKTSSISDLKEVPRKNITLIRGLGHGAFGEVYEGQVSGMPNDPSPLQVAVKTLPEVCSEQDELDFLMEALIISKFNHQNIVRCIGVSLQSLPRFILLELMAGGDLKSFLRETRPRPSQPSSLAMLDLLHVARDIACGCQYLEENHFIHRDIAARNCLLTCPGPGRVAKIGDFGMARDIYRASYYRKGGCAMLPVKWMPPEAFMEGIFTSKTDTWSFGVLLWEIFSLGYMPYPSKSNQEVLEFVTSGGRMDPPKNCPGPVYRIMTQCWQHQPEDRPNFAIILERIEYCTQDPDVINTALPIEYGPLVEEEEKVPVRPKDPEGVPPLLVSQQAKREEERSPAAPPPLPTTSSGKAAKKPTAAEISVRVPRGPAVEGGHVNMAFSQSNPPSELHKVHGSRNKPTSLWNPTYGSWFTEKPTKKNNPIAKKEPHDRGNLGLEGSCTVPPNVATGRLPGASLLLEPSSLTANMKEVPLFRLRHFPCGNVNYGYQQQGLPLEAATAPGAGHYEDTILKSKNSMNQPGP
T3 sequence (P52333 781-1124): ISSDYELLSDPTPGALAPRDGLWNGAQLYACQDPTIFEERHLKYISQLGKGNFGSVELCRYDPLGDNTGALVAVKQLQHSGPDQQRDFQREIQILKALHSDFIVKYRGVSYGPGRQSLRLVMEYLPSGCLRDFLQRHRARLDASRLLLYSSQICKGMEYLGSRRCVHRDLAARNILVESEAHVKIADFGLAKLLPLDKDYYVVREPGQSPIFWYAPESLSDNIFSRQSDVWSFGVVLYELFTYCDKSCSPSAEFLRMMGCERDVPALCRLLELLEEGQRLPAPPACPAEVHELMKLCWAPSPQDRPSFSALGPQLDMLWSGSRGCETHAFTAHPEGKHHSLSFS
T2 sequence (O60674 828-1132): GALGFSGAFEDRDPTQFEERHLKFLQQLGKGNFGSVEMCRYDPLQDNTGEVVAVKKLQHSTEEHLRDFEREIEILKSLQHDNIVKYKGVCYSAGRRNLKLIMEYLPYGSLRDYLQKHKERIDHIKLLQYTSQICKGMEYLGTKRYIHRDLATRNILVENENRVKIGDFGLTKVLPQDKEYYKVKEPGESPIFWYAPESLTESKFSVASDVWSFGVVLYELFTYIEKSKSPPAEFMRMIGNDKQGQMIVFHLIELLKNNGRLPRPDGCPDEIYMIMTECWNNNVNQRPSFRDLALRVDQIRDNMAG
Sequence of TYK2 (P29597 whole entry): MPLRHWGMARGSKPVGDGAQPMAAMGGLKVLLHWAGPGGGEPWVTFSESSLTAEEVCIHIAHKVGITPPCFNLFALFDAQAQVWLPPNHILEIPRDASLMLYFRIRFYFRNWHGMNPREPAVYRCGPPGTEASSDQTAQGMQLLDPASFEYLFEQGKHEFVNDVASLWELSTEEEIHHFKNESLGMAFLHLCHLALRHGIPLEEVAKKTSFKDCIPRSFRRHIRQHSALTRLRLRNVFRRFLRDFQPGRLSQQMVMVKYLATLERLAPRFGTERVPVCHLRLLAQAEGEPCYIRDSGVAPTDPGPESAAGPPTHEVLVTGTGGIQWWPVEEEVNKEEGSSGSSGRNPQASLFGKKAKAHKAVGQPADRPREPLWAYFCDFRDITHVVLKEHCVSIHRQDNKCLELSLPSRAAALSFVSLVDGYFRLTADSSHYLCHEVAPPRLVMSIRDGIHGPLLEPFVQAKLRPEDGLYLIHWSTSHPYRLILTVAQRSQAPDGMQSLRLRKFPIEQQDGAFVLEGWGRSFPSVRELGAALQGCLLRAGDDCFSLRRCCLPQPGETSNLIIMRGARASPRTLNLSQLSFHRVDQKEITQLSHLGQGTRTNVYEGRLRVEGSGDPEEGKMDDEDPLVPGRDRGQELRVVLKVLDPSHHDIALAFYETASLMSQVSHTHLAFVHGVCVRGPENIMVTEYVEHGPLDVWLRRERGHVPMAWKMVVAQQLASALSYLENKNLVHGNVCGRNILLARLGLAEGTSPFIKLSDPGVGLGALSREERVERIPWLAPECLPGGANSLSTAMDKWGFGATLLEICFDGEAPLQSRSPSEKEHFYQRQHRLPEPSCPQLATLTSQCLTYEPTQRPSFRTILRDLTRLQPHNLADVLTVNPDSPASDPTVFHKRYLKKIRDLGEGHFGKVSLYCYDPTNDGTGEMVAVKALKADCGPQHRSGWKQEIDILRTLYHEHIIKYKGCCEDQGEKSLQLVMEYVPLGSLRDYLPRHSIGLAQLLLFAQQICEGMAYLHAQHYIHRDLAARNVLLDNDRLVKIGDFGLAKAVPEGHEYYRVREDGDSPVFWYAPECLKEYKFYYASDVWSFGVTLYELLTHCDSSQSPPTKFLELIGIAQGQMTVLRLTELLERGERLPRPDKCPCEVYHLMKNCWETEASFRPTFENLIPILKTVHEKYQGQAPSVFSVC
T1 sequence (P23458 849-1154): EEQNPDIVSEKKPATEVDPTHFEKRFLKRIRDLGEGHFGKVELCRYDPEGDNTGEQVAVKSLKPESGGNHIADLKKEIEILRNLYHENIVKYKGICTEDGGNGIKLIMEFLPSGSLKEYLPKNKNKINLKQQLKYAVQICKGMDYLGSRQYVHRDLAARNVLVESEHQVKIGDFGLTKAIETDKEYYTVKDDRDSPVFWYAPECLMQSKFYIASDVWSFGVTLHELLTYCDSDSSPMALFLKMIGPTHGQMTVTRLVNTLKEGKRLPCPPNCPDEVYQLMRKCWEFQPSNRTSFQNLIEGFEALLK

SMILES | IC50 ([1]; Table B1) | IC50 ([2]; Table B1) | IC50 ([3]; Table B1) | IC50 (TYK2; Table B1) | ALK % of inhibition at a concentration of 500 nM or 1 mM [4, 5] | IC50 [4] | IC50 [1, 6] | IC50 [2, 7] | IC50 [3, 8] | IC50 (TYK2) | ALK % of inhibition at a concentration of 500 nM or 1 mM [4, 9] | ALK % of inhibition at a concentration of 500 nM or 1 mM [4, 10]
COc1ccc(CN2CCN(Cc3cc4cc(c3)Nc3nc(ncc3Cl)Nc3cccc(c3)CC4)CC2)cc1 [Example B197, 6-Chloro-11-{[4-(4-methoxybenzyl)piperazin-1-yl]methyl}-2,4,8,22-tetraazatetracyclo[14.3.1.1(3,7).1(9,13)]docosa-1(20),3(22),4,6,9(21),10,12,16,18-nonaene tris(trifluoroacetate)] | 18 nM | 2.2 nM | 138 nM | 188 nM | – | > 1000 nM | – | – | – | – | – | –
Clc1cnc2nc1Nc1ccc(CN[C@H]3CCNC3)c(c1)CCc1cccc(c1)N2 [Example B223, (3S)—N-{[6-Chloro-2,4,8,22-tetraazatetracyclo[14.3.1.1(3,7).1(9,13)]docosa-1(20),3(22),4,6,9(21),10,12,16,18-nonaen-12-yl]methyl}pyrrolidin-3-amine tris(trifluoroacetate)] | 17 nM | 7.4 nM | 29 nM | 42 nM | 41% | – | – | – | – | – | – | –
CCOC(=O)c1coc(Nc2ccc3cc2CCc2cccc(c2)Nc2ncc(Cl)c(n2)N3)n1 [Example B278, Ethyl 2-{[6-chloro-2,4,8,22-tetraazatetracyclo[14.3.1.1(3,7).1(9,13)]docosa-1(20),3(22),4,6,9(21),10,12,16,18-nonaen-12-yl]amino}-1,3-oxazole-4-carboxylate bis(trifluoroacetate)] | 47 nM | 126 nM | 1850 nM | 222 nM | 10% | – | – | – | – | – | – | –
CCNC(=O)N1CCN(C(=O)COc2ccc3cc2CCc2cccc(c2)Nc2ncc(Cl)c(n2)N3)CC1 [Example A12, trifluoroacetate] | – | – | – | – | – | – | 9.4 nM | 11 nM | 65 nM | 30 nM | 17% | –
Cc1cc(C(=O)N2CCC(CC(=O)Nc3ccc4cc3CCc3cncc(c3)Nc3ncc(Cl)c(n3)N4)CC2)no1 [Example A101, N-[6-Chloro-2,4,8,18,22-pentaazatetracyclo[14.3.1.1(3,7).1(9,13)]docosa-1(20),3(22),4,6,9(21),10,12,16,18-nonaen-12-yl]-2-{1-[(5-methylisoxazol-3-yl)carbonyl]piperidin-4-yl}acetamide bis(trifluoroacetate)] | – | – | – | – | – | – | 0.5 nM | 10 nM | 128 nM | 3.4 nM | 29% | –
N#Cc1ccc(NC(=O)Nc2cc3cc(c2)Nc2nc(ncc2Cl)Nc2cccc(c2)CC3)cc1 [Example B212, N-[6-Chloro-2,4,8,22-tetraazatetracyclo[14.3.1.1(3,7).1(9,13)]docosa-1(20),3(22),4,6,9(21),10,12,16,18-nonaen-11-yl]-N′-(4-cyanophenyl)urea trifluoroacetate] | 400 nM | 238 nM | 312 nM | 500 nM | 14% | – | – | – | – | – | – | –
O=C(Nc1ccc2cc1CCc1cncc(c1)Nc1ncc(Cl)c(n1)N2)N1CCC(S(=O)(=O)c2ccccc2)C1 (stereo not shown) [Example B321, N-[6-Chloro-2,4,8,18,22-pentaazatetracyclo[14.3.1.1(3,7).1(9,13)]docosa-1(20),3(22),4,6,9(21),10,12,16,18-nonaen-12-yl]-3-(phenylsulfonyl)pyrrolidine-1-carboxamide bis(trifluoroacetate)] | 75 nM | 371 nM | > 400 nM | > 400 nM | – | – | – | – | – | – | – | 36%
N#Cc1ccc(N2CCN(C(=O)Nc3ccc4cc3CCc3cncc(c3)Nc3ncc(Cl)c(n3)N4)CC2)cc1 [Example B303, N-[6-Chloro-2,4,8,18,22-pentaazatetracyclo[14.3.1.1(3,7).1(9,13)]docosa-1(20),3(22),4,6,9(21),10,12,16,18-nonaen-12-yl]-4-(4-cyanophenyl)piperazine-1-carboxamide tris(trifluoroacetate)] | 19 nM | 161 nM | > 400 nM | 36 nM | – | – | – | – | – | – | – | 81%
O=C(Nc1cccc(Cl)c1)c1cc2cc(c1)Nc1nc(ncc1Cl)Nc1cccc(c1)CC2 [Example B13, 6-Chloro-N-(3-chlorophenyl)-2,4,8,22-tetraazatetracyclo[14.3.1.1(3,7).1(9,13)]docosa-1(20),3(22),4,6,9(21),10,12,16,18-nonaene-11-carboxamide trifluoroacetate] | 900 nM | 171 nM | 682 nM | > 1000 nM | – | > 1000 nM | – | – | – | – | – | –
O=C(Nc1ccc2cc1CCc1cccc(c1)Nc1ncc(Cl)c(n1)N2)N1CCN(c2ccccn2)CC1 [Example B290, N-[6-Chloro-2,4,8,22-tetraazatetracyclo[14.3.1.1(3,7).1(9,13)]docosa-1(20),3(22),4,6,9(21),10,12,16,18-nonaen-12-yl]-4-pyridin-2-ylpiperazine-1-carboxamide bis(trifluoroacetate)] | 82 nM | 89 nM | > 200 nM | 59 nM | 50% | – | – | – | – | – | – | –

More lines, now with the values ahead:

IC50 ([1]; Table B1) | IC50 ([2]; Table B1) | IC50 ([3]; Table B1) | IC50 (TYK2; Table B1) | ALK % of inhibition at a concentration of 500 nM or 1 mM [4, 5] | IC50 [4] | IC50 [1, 6] | IC50 [2, 7] | IC50 [3, 8] | IC50 (TYK2) | ALK % of inhibition at a concentration of 500 nM or 1 mM [4, 9] | ALK % of inhibition at a concentration of 500 nM or 1 mM [4, 10] | SMILES
4 nM | 5.5 nM | 65 nM | 16 nM | 8.1% | – | – | – | – | – | – | – | O=C(Nc1ccc2cc1CCc1cccc(c1)Nc1ncc(Cl)c(n1)N2)N[C@H]1CCN(C(=O)c2nccs2)C1 [Example B231, N-[6-Chloro-2,4,8,22-tetraazatetracyclo[14.3.1.1(3,7).1(9,13)]docosa-1(20),3(22),4,6,9(21),10,12,16,18-nonaen-12-yl]-N′-[(3S)-1-(1,3-thiazol-2-ylcarbonyl)pyrrolidin-3-yl]urea trifluoroacetate]
7.9 nM | 18 nM | 122 nM | 16 nM | 6.2% | – | – | – | – | – | – | – | CC(C)(C)OC(=O)N1CCCC(NC(=O)Nc2ccc3cc2CCc2cccc(c2)Nc2ncc(Cl)c(n2)N3)C1 (stereo not shown) [Example B237, tert-Butyl 3-[({[6-chloro-2,4,8,22-tetraazatetracyclo[14.3.1.1(3,7).1(9,13)]docosa-1(20),3(22),4,6,9(21),10,12,16,18-nonaen-12-yl]amino}carbonyl)amino]piperidine-1-carboxylate]
3.5 nM | 0.88 nM | 48 nM | 111 nM | – | > 10000 nM | – | – | – | – | – | – | Clc1cnc2nc1Nc1cc(cc(CN3CCN(Cc4cc(Br)cs4)CC3)c1)CCc1cccc(c1)N2 [Example B196, 11-({4-[(4-Bromo-2-thienyl)methyl]piperazin-1-yl}methyl)-6-chloro-2,4,8,22-tetraazatetracyclo[14.3.1.1(3,7).1(9,13)]docosa-1(20),3(22),4,6,9(21),10,12,16,18-nonaene tris(trifluoroacetate)]
1.4 nM | 0.55 nM | 3.6 nM | 2.1 nM | – | 430 nM | – | – | – | – | – | – | Cc1noc(C)c1C(=O)Nc1ccc2cc1CCc1cccc(c1)Nc1ncc(Cl)c(n1)N2 [Example B40, N-[6-Chloro-2,4,8,22-tetraazatetracyclo[14.3.1.1(3,7).1(9,13)]docosa-1(20), 3(22),4,6,9(21),10,12,16,18-nonaen-12-yl]-3,5-dimethylisoxazole-4-carboxamide trifluoroacetate]
